Where two headings read alike, the source gives them in different places.
Assays:
[1] = system: AIDS; conditions: cited from earlier work
[2] = system: HIV reverse transcriptase; conditions: in vitro; cited from earlier work
[3] = system: HIV; conditions: CEM cells; concentrations in the 6ppm range; cited from earlier work
[4] = system: cells; conditions: cited from earlier work
[5] = design: species or system patients; conditions: human, in vivo
Text: A powerful means to attack the AIDS virus (HIV) would be to find a specific inhibitor of the viral reverse transcriptase. If this enzyme cannot function, viral replication cannot take place. The significant aspect of the viral life cycle which must be considered is that the viral replication takes place intracellularly. Thus, agents which may work in a test tube to inhibit the enzyme activity will have no effect on the virus itself unless the agent is capable of entering cells and developing an effective intracellular concentration.

[6] = system: whole blood
Procedure: (§1) Experiments were done in which whole blood or red blood cells were washed and resuspended in a balanced salt solution, and then incubated at 37° with 200 ppb [Au(CN)2 ]^-. After 1 hour of incubation, cells were washed with balanced salt, centrifuged, then resuspended in water to lyse the cells. The resulting suspension was centrifuged at 20,000 rpm to separate the membrane and lysate (soluble protein) fractions. Both membrane and lysate fractions were analyzed for total gold by flow injection analysis using an inductively coupled plasma-mass spectrometer (ICP-MS).

[7] = system: red blood cells
Procedure: as §1

## Cc1cn([C@H]2C[C@H](N=[N+]=[N-])[C@@H](CO)O2)c(=O)[nH]c1=O [AZT, azidothymidine]
[1]; AIDS
  side effects: significant side effects

## O=c1[nH]cnc2c1ncn2[C@H]1CC[C@@H](CO)O1 [DDI, dideoxyinosine]
[1]; in vivo
  side effects: significant side effects

## bis(thioglucose)gold(I)
[2]
  inhibition of HIV reverse transcriptase: does inhibit HIV reverse transcriptase
[3]
  inhibition of the infectivity of HIV: inhibit the infectivity of HIV

## gold(I) thioglucose [Solganol]
[2]
  inhibition of HIV reverse transcriptase: inhibit HIV reverse transcriptase
[4]
  ability to enter cells: inherently unable to enter cells
[5]
  levels of gold inside cells (in words): well below the levels required to inhibit the enzyme in vitro
  levels of gold inside cells relative to amount found in blood: less than 5%

## sodium gold(I) thiomalate [Myochrysine]
[6]
  gold remaining in the incubation medium: ~90%
  total gold found in the cell lysate: about 5%
  total gold in Cell lysate: 4%
  total gold in Membranes: 6%
  total gold in Supernatant: 90%
[7]
  total gold in Cell lysate: 6%
  total gold in Membranes: 10%
  total gold in Supernatant: 84%
